Assay results reported in ChEMBL document CHEMBL1147766, “Structure-based design of novel groups for use in the P1 position of thrombin inhibitor scaffolds. Part 1: Weakly basic azoles” (Bioorg Med Chem Lett, 2006).

How the values were obtained:
Prothrombin [1] = molecular target: T1, Prothrombin (Homo sapiens, UniProt P00734); assay: Binding affinity to thrombin
Trypsin = Trypsin (Homo sapiens, UniProt P07477+P07478+P35030); assay: Binding affinity to trypsin; format: protein assay
[2] = Cmax in dog administered with 5 mg/kg, po; format: ADME, organism-based, Canis lupus familiaris; parameters: dose 5 mg/kg, route oral; conditions: in vivo
Prothrombin [3] = molecular target: T1, Prothrombin; conditions: Plasma
Description: Anticoagulant potency in human plasma

[4] = Cmax in dog administered with 4 mg/kg, po; format: ADME, organism-based, Canis lupus familiaris; parameters: dose 4 mg/kg, route oral; conditions: in vivo
[5] = Half life in dog administered with 4 mg/kg, po; format: ADME, organism-based, Canis lupus familiaris; parameters: dose 4 mg/kg, route oral; conditions: in vivo

| Compound | Ki (Prothrombin [1]) [µM] | Ki (Trypsin) [µM] | also measured |
| --- | --- | --- | --- |
| Nc1ncc(CCNC(=O)[C@@H]2CCCN2C(=O)[C@H](N)C(c2ccccc2)c2ccccc2)s1 | 0.193 | 59 | – |
| Cc1nc(N)sc1CNC(=O)Cn1c(C)ccc(NS(=O)(=O)Cc2ccccc2)c1=O | 0.01 | 6.5 | – |
| Nc1ncc(CNC(=O)[C@@H]2CCCN2C(=O)[C@H](N)C(c2ccccc2)c2ccccc2)s1 | 0.35 | 59 | – |
| Cc1ccc(NS(=O)(=O)Cc2ccccc2)c(=O)n1CC(=O)NCCCc1c[nH]cn1 | 0.034 | 17 | – |
| Nc1ncc(/C=C/CNC(=O)[C@@H]2CCCN2C(=O)[C@H](N)C(c2ccccc2)c2ccccc2)s1 | 0.03 | 178 | – |
| Cc1nc[nH]c1CNC(=O)Cn1c(C)cnc(NCCc2ccccn2)c1=O | 0.022 | – | – |
| Cc1[nH]cnc1C#CCNC(=O)[C@@H]1CCCN1C(=O)[C@H](N)C(c1ccccc1)c1ccccc1 | 0.006 | 7.2 | – |
| Cc1[nH]cnc1CNC(=O)[C@@H]1CCCN1C(=O)[C@H](N)C(c1ccccc1)c1ccccc1 | 0.065 | 9.6 | – |
| Nc1ncc(CCCNC(=O)[C@@H]2CCCN2C(=O)[C@H](N)C(c2ccccc2)c2ccccc2)s1 | 0.198 | 32 | – |
| Cc1ccc(NS(=O)(=O)Cc2ccccc2)c(=O)n1CC(=O)NCc1cnc(N)s1 | – | > 1000 | – |
| Cc1nc[nH]c1CNC(=O)Cn1c(C)ccc(NS(=O)(=O)Cc2ccccc2)c1=O | 0.008 | 43 | – |
| N[C@@H](C(=O)N1CCC[C@H]1C(=O)NCC#Cc1c[nH]cn1)C(c1ccccc1)c1ccccc1 | 0.013 | 6 | – |
| N[C@@H](C(=O)N1CCC[C@H]1C(=O)NCCc1c[nH]cn1)C(c1ccccc1)c1ccccc1 | 0.2 | 2.3 | – |
| Cc1cnc(NCCc2ccccc2)c(=O)n1CC(=O)NC[C@H]1CC[C@H](N)CC1 | 0.0064 | – | – |
| N[C@@H](C(=O)N1CCC[C@H]1C(=O)NCc1c[nH]cn1)C(c1ccccc1)c1ccccc1 | 0.38 | 36 | – |
| Cc1ccc(NS(=O)(=O)Cc2ccccc2)c(=O)n1CC(=O)NC/C=C/c1c[nH]cn1 | 0.143 | 21 | – |
| Cc1ccc(NS(=O)(=O)Cc2ccccc2)c(=O)n1CC(=O)NC/C=C/c1cnc(N)s1 | 1.8 | > 1000 | – |
| Cc1ccc(NS(=O)(=O)Cc2ccccc2)c(=O)n1CC(=O)NCc1c[nH]cn1 | 0.17 | 314 | – |
| N[C@@H](C(=O)N1CCC[C@H]1C(=O)NC/C=C/c1c[nH]cn1)C(c1ccccc1)c1ccccc1 | 0.002 | 0.14 | – |
| Cc1ccc(NS(=O)(=O)Cc2ccccc2)c(=O)n1CC(=O)NCCCc1cnc(N)s1 | 0.45 | 124 | – |
| Cc1[nH]cnc1/C=C/CNC(=O)[C@@H]1CCCN1C(=O)[C@H](N)C(c1ccccc1)c1ccccc1 | 0.001 | 0.1 | Cmax [2]: 550 nM; 2aPTT (Prothrombin [3]): 0.32 µM |
| N[C@@H](C(=O)N1CCC[C@H]1C(=O)NCCCc1c[nH]cn1)C(c1ccccc1)c1ccccc1 | 0.017 | 0.24 | – |
| Cc1nc[nH]c1CNC(=O)Cn1c(C)cnc(NCCc2ccccc2)c1=O | 0.053 | – | Cmax [4]: 1400 nM; half-life [5]: 2 h |
